Test results from the supplement of paper PMC11208160.

Assay: recombinant barcode read abundance after kanamycin selection (control-corrected) (log10(CPM+1)); higher = more efficient recombination; sequences stand for … in AGTGCAGAGAAAATCGGCCAGTTTTCTCTGCCTGCAGTCCGCATGCCGT…AGATTTATGCAGCGGACTGCCTTTCTCCCAAAGTGATAAACCGGACAGTATCATGGACCGGTTTTCCCGGTAATCCGTATTTGCAAGGTTGGTTTCACT; site = the 11-nt target
Method in brief: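 Values are log10(CPM+1) from a pooled E. coli screen of targets paired with IS621 bridge RNA target-binding loops. Recombination efficiency here means counts per million of recombinant-junction barcodes, averaged and control-corrected. Plates were chloramphenicol/ampicillin LB agar for the control and chloramphenicol/ampicillin/kanamycin with 0.1 mM IPTG, two replicates each.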
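Note: IS621 recombinase and bridge RNA in Escherichia coli cells.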

Sequence | recombinant barcode read abundance (log10)
ACAAGGGCTTGGGTTCTAACCTGTTGCCT (site ACAAAGACTAG) | 0.261
AGATTGACTTGGGTTCTAACCTGTTGCCA (site AGATTGACTTG) | 0.193
ATCGGAGCTTGGGTTCTAACCTGTTGCGG (site ATCGGAGCTCC) | 1.7
AAAGGTTCTTGGGTTCTAACCTGTTGCCT (site AAAGGTTCTAG) | 1.58
CGGCCCACTTGGGTTCTAACCTGTTGCGG (site CGGGCCACTAC) | 0.033
TCACACACTTGGGTTCTAACCTGTTGCCT (site CTCAGACCTCA) | 0.0319
AAGGCGCCTTGGGTTCTAACCTGTTGCCT (site ATGGCGCCTAG) | 0.135
ACGTCACCTTGGGTTCTAACCTGTTGCCT (site GCGTCACCTAG) | 0.221
GGTACGCCTTGGGTTCTAACCTGTTGCAT (site GGTACGCCTAT) | 0.685
ACAGGTTCTTGGGTTCTAACCTGTTGCCT (site AGAGGTTCTAG) | 0.283
TGTAGTCCTTGGGTTCTAACCTGTTGCTT (site TGTAGTCCTAG) | 0.187
GTCGACGCTTGGGTTCTAACCTGTTGCCT (site GTCGACCCTAG) | 0.158
ACACACTCTTGGGTTCTAACCTGTTGCTG (site ACACTCCCTCA) | 0.0463
GACCGCTCTTGGGTTCTAACCTGTTGCTA (site GACCGCTCTTA) | 1.2
ACTCTAACTTGGGTTCTAACCTGTTGCTT (site ACTATAACTAA) | 0.154
AGTAAGACTTGGGTTCTAACCTGTTGCTT (site AGTAAGACTAA) | 0.281
TAGTCAGCTTGGGTTCTAACCTGTTGCAC (site TAGTCAGCTGT) | 1.2
ATATGTGCTTGGGTTCTAACCTGTTGCCG (site ATATGCGCTCG) | 0.0242
AATTTAGCTTGGGTTCTAACCTGTTGCCT (site AATTGAGCTAG) | 0.0396
ACCAGTCCTTGGGTTCTAACCTGTTGCTA (site ACCAGTCCTCA) | 0.065
AGCTTAGCTTGGGTTCTAACCTGTTGCCA (site AGCTTAGCTAG) | 0.484
GGTAATACTTGGGTTCTAACCTGTTGCAT (site GGTAATACTAT) | 0.957

Sequence | recombinant barcode read abundance (log10)
AGATCGGCTTGGGTTCTAACCTGTTGCCT (site AGATCGGCTAG) | 0.377
CCGCCGGCTTGGGTTCTAACCTGTTGCCT (site CCGCCCGCTAG) | 0.222
GAGCCGCCTTGGGTTCTAACCTGTTGCCG (site GAGCCGCCTCG) | 1.04
TACTGATCTTGGGTTCTAACCTGTTGCCT (site TACTGATCTAG) | 0.461
GGGGTATCTTGGGTTCTAACCTGTTGCCT (site GGGGTATCTAG) | 1.21
TATGGTACTTGGGTTCTAACCTGTTGCGT (site TATGGTACTAC) | 2.22
GGGGCCTCTTGGGTTCTAACCTGTTGCTT (site GGGGCATCTAA) | 0.481
TGAAACTCTTGGGTTCTAACCTGTTGCGG (site TGAAACTCTCC) | 1.16
GAGAACACTTGGGTTCTAACCTGTTGCCT (site GAGAACACTAG) | 2.01
GATAGGGCTTGGGTTCTAACCTGTTGCGG (site GATAGGGCTCC) | 2.34
CACTTGGCTTGGGTTCTAACCTGTTGCCT (site CACTTGCCTAG) | 0.366
TGGTGCCCTTGGGTTCTAACCTGTTGCGG (site TGCTTCCCTCC) | 0.109
TATGGGACTTGGGTTCTAACCTGTTGCCT (site TATGGGACTAG) | 1.25
TCCCACACTTGGGTTCTAACCTGTTGCCA (site ACCCACACTCG) | 0.129
GTCTTACCTTGGGTTCTAACCTGTTGCCT (site GTCTTACCTAG) | 1.34
GTGCAGACTTGGGTTCTAACCTGTTGCCT (site GTACAGACTAG) | 2.5
GAGCAGTCTTGGGTTCTAACCTGTTGCCT (site GAGCAGTCTAG) | 2.4
TCAAGCCCTTGGGTTCTAACCTGTTGCAG (site TCAAGCCCTCT) | 0.927
GGTGGGTCTTGGGTTCTAACCTGTTGCCT (site GGTGGGTCTAA) | 0.123
TAATGCCCTTGGGTTCTAACCTGTTGCCT (site TATTGCCCTAG) | 0.13
GGAGTCCCTTGGGTTCTAACCTGTTGCGA (site GGATTCCCTTG) | 0.0458
ACTAGTGCTTGGGTTCTAACCTGTTGCCT (site AATAGTGCTAG) | 0.111

Sequence | recombinant barcode read abundance (log10)
TACTAAACTTGGGTTCTAACCTGTTGCCT (site TACTTAACTAG) | 0.00687
GTACAGACTTGGGTTCTAACCTGTTGCCT (site GTACAGACTAG) | 1.43
CTGCGCCCTTGGGTTCTAACCTGTTGCCT (site CTGCGCCCTAG) | 1.1
TCCGGTACTTGGGTTCTAACCTGTTGCAT (site TCCTGTACTAT) | 0.114
ATAAGAGCTTGGGTTCTAACCTGTTGCCT (site ATAAAAGCTAG) | 0.385
GAGCCGCCTTGGGTTCTAACCTGTTGCCG (site GAGCCACCTCA) | 0.118
ATGGTGCCTTGGGTTCTAACCTGTTGCCT (site ATGGTGTCTAG) | 2.03
TCAGCGACTTGGGTTCTAACCTGTTGCCT (site TCCGCGACTAG) | 0.139
TACAGACCTTGGGTTCTAACCTGTTGCAG (site TACAGACCTCT) | 1.28
GATTCTCCTTGGGTTCTAACCTGTTGCTT (site GATTCTCCTAA) | 0.0943
CGTACCTCTTGGGTTCTAACCTGTTGCTG (site CGTACCTCTCA) | 0.164
TGGAGCCCTTGGGTTCTAACCTGTTGCAT (site TGGAGCCCTCT) | 0.053
TCGAGTCCTTGGGTTCTAACCTGTTGCCA (site TCGAGTCCTTG) | 0.084
GTCTCTTCTTGGGTTCTAACCTGTTGCTA (site GTCTCGTCTAA) | 0.0282
ACTTTAACTTGGGTTCTAACCTGTTGCTT (site ACTCTAACTAA) | 0.229
CTAGGAGCTTGGGTTCTAACCTGTTGCTC (site CTAGGAGCTAA) | 0.241
TGCCCGCCTTGGGTTCTAACCTGTTGCCT (site GGCCCGCCTAG) | 0.757
CTATGTGCTTGGGTTCTAACCTGTTGCAT (site CTATGTGCTAC) | 0.168
CCACTGCCTTGGGTTCTAACCTGTTGCCT (site CCACTCCCTAG) | 0.229
GAGTACCCTTGGGTTCTAACCTGTTGCGT (site GAGTACCCTAC) | 3.2
TCCGGTACTTGGGTTCTAACCTGTTGCAT (site TCCGGTACTAT) | 0.849
TAATTGTCTTGGGTTCTAACCTGTTGCGT (site CAATTGTCTAC) | 0.725

Sequence | recombinant barcode read abundance (log10)
TAGCACCCTTGGGTTCTAACCTGTTGCCG (site TAGCACCCTAG) | 0.287
CTCCATTCTTGGGTTCTAACCTGTTGCCT (site CTCCATGCTAG) | 0.129
TGCGGAGCTTGGGTTCTAACCTGTTGCCG (site TGCGGAGCTCG) | 0.726
CCTAGAACTTGGGTTCTAACCTGTTGCCT (site CCTAGAACTAG) | 0.134
TAGTACTCTTGGGTTCTAACCTGTTGCTC (site TAGTACTCTTA) | 0.124
TAGTTAGCTTGGGTTCTAACCTGTTGCCC (site TAGTTAGCTCG) | 0.0413
CTGTCGCCTTGGGTTCTAACCTGTTGCCT (site CTATCGCCTAG) | 0.699
CGATGTCCTTGGGTTCTAACCTGTTGCCT (site CGATGTGCTAG) | 0.039
CTGAGGACTTGGGTTCTAACCTGTTGCCT (site TTGAGGACTAG) | 0.325
CTATGGACTTGGGTTCTAACCTGTTGCAT (site CTATGGACTGT) | 0.217
GCGCGGCCTTGGGTTCTAACCTGTTGCCT (site ACGCGGCCTAG) | 0.56
CTTCGGGCTTGGGTTCTAACCTGTTGCAA (site CTTCGGGCTTT) | 0.915
AGGTCTACTTGGGTTCTAACCTGTTGCGG (site GAAAACTCTAG) | 0.0493
CACCTGTCTTGGGTTCTAACCTGTTGCGG (site AGATATACTAA) | 0.0793
CGGGCTACTTGGGTTCTAACCTGTTGCTA (site CGGGCTACTTA) | 1.79
ACTTTAACTTGGGTTCTAACCTGTTGCTT (site ACTATAACTAA) | 0.185
CTTTGCCCTTGGGTTCTAACCTGTTGCCT (site CCTTGCCCTAG) | 0.0734
CACTTCCCTTGGGTTCTAACCTGTTGCGT (site CACTTCCCTAA) | 0.0684
GAGATGTCTTGGGTTCTAACCTGTTGCCT (site GGGATGTCTAG) | 0.266
TCACCGCCTTGGGTTCTAACCTGTTGCCT (site TCACCGCCTAG) | 0.172
